From article PMC7948455, “Novel drug discovery platform for spinocerebellar ataxia, using fluorescence technology targeting β-III-spectrin” (The Journal of Biological Chemistry, 2020)
“Also recorded” adds a separate entry of the source.

Tests used:
HEK293-6E cells = assay: Trypan blue cell viability assay; format: cell-based
Experimental: HEK293-6E cell viability was measured using trypan blue (0.03%) staining and a Countess Automated Cell counter (Invitrogen). Nontransfected HEK293-6E cells were spun at 100g for 5 min at 21 °C and resuspended in 10 ml of PBS. The centrifugation and resuspension were repeated twice more. Final cell concentration was 1 × 10^6 cells/ml. Cells were incubated with 2% DMSO or 3 to 50 μM compound (as indicated) for 3 h at room temperature (21 °C). After addition of 100 μl of 0.06% trypan blue solution in PBS, 10 μl was loaded on a slide and injected into the cell counter, and cell viability was measured.

ABD L253P = molecular target: T1, ABD L253P (Homo sapiens, UniProt O15020, L253P); assay: Sedimentation of ABD L253P without actin (aggregation); conditions: for Effect on ABD pelleting without actin (aggregation): 10 μM Hit compound, n = 4
T1 construct: the β-III-spectrin (human) ABD residues 1 to 284; His-SUMO (cleaved yes); made in house; host or cells: E. coli BL21(DE3), vector pE-SUMOpro
Experimental: In addition to a reduction in cell viability, the primary and counter screen may be sensitive to compounds that promote ABD-L253P protein aggregation. […] Our assay measuring ABD-L253P cosedimentation with actin is not sensitive to ABD aggregation, as it is designed to work under conditions where ∼90% ABD-L253P cosediments with actin. Nevertheless, we repeated these measurements in the absence of actin.
(§1) F-actin and ABD binding assays were performed as previously described ([10]). In brief, binding assays used 1 μM ABD protein, 1 μM F-actin, and 1 to 50 μM compound (as indicated) or DMSO control for a total reaction volume of 60 μl in F-buffer containing 10 mM Tris, pH 7.5, 150 mM NaCl, 0.5 mM ATP, 2 mM MgCl2, and 1 mM DTT. Following 30 min incubation at room temperature (21 °C). F-actin was pelleted using centrifugation at 100,000g at 25 °C for 30 min. Unbound ABD in the supernatant was measured following SDS-PAGE and Coomassie blue staining in accord ([10]). In addition, control cosedimentations assays that lacked actin were performed to test if compounds cause ABD aggregation. F-actin and Lifeact-mCherry binding assays were undertaken with 2 μM Lifeact-mCherry, 30 μM F-actin, and 1 to 50 μM compound (as indicated) or DMSO control for a total reaction volume of 80 μl in F-buffer. For a no-actin binding control, an assay sample with no F-actin was also set up. Binding reactions were allowed to reach equilibrium at room temperature (21 °C) for 30 min, and then F-actin was pelleted by centrifugation at 100,000g at 25 °C for 30 min. The amount of unbound Lifeact-mCherry was sampled by loading 7 μl of spin supernatant on a low-volume black bottom 384-well plate (Greiner). Amount of mCherry was determined by acquiring fluorescence spectrum peak intensity at ∼600 nm using a spectral unmixing plate reader (Fluorescence Innovations, Inc) equipped with a 532 nm laser (Laserglow Technologies, Ontario, Canada) for excitation, 532 nm long-pass filter for emission, and PMT for emission detection. The fraction of Lifeact-mCherry bound to F-actin was determined by subtracting from one the fraction of supernatant fluorescence intensity relative to the no-actin control sample:(3) Lifeactboundfraction=1−Fcompound/DMSO/FNo−actin where Fcontrol/DMSO is the peak mCherry fluorescence of assay samples containing compound or DMSO control, and Fno-actin is the peak mCherry fluorescence of assay samples that contained no F-actin.

[1] = molecular target: T2, ABD-L253P binding to actin (Homo sapiens, UniProt O15020, L253P); assay: F-actin and ABD cosedimentation assay; conditions: for Effect on ABD-L253P to actin cosedimentation: 10 μM Hit compound
T2 construct: the β-III-spectrin (human) ABD residues 1 to 284; His-SUMO (cleaved yes); made in house; host or cells: E. coli BL21(DE3), vector pE-SUMOpro; actin from rabbit psoas muscle tissue
Experimental: Actin was purified from acetone powder derived from the psoas muscle of New Zealand white rabbit (Oryctolagus cuniculus) ([46]). Filamentous (F)-actin was stored for up to 3 days on ice before use in binding assays. Within an hour of the binding assay, the F-actin was clarified at 100,000g at 4 °C for 10 min prior to setting up binding assays. The L253P β-III-spectrin ABD was expressed in E. coli BL21(DE3) (Novagen). The ABD was purified and the His-SUMO tag proteolytically removed, as previously described ([14]), except size-exclusion chromatography was not performed due to the high purity of the ABD protein. Lifeact-mCherry protein was similarly prepared. A Bradford assay was performed to determine clarified F-actin and ABD protein concentrations.
as §1

[2] = 10 μM Hit compound, 3 h incubation

T2 sequence (O15020 1-284 L253P): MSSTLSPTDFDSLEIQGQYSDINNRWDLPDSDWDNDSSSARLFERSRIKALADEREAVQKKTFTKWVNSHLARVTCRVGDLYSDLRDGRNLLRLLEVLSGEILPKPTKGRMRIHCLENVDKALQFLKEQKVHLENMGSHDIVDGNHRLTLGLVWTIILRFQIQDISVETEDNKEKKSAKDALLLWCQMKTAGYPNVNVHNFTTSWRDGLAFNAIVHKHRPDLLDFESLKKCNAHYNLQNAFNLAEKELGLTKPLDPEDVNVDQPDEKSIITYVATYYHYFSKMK
T1 sequence (O15020 1-284 L253P): as above

Row | SMILES | Effect on ABD-L253P to actin cosedimentation [1] | Effect on HEK293-6E cell viability (HEK293-6E cells; [2]) | Effect on ABD pelleting without actin (aggregation) (ABD L253P) | Effect on HEK293-6E cell viability (HEK293-6E cells; 3 μM swinholide A, 50 μM tegaserod, 3 h) | Effect on ABD sedimentation without actin (ABD L253P; 1.6 μM swinholide A) | Effect on ABD-L253P cosedimentation with actin ([1]; 3 μM swinholide A, 50 μM tegaserod, n = 4)
1 | CC(C)(C)c1ccc(/C=C/C(=O)Nc2ccc3c(c2)OCCO3)cc1 [AMG 9810] | do not significantly alter | do not significantly alter | do not significantly alter | – | – | –
2 | CCCCCCCC/C=C\CCCCCCCC(=O)NCc1ccc(O)c(OC)c1 [olvanil] | do not significantly alter | do not significantly alter | do not significantly alter | – | – | –
3 | CO[C@H]1C[C@H](CC[C@H](C)[C@H](O)[C@H](C)[C@H]2OC(=O)/C=C/C(C)=C/C[C@H](O)C[C@@H]3C=CC[C@@H](C[C@H](OC)[C@@H](C)[C@@H](O)C[C@@H](O)[C@H](C)[C@@H]([C@@H](C)[C@@H](O)[C@@H](C)CC[C@H]4C[C@H](OC)C[C@H](C)O4)OC(=O)/C=C/C(C)=C/C[C@H](O)C[C@@H]4C=CC[C@@H](C[C@H](OC)[C@@H](C)[C@@H](O)C[C@@H](O)[C@@H]2C)O4)O3)O[C@@H](C)C1 [swinholide A] | – | – | – | did not significantly alter | did not induce | ablation

The next lines start with results.

Row | Effect on ABD-L253P to actin cosedimentation [1] | SMILES | Effect on HEK293-6E cell viability (HEK293-6E cells; [2]) | Effect on ABD pelleting without actin (aggregation) (ABD L253P) | Effect on HEK293-6E cell viability (HEK293-6E cells; 3 μM swinholide A, 50 μM tegaserod, 3 h) | Effect on ABD sedimentation without actin (ABD L253P; 1.6 μM swinholide A) | Effect on ABD-L253P cosedimentation with actin ([1]; 3 μM swinholide A, 50 μM tegaserod, n = 4)
4 | do not significantly alter | O=C(O)c1cc([N+](=O)[O-])ccc1NCCCc1ccccc1 [NPPB] | do not significantly alter | do not significantly alter | – | – | –
5 | do not significantly alter | CCOc1nc2cccc(C(=O)O)c2n1Cc1ccc(-c2ccccc2-c2nnn[nH]2)cc1 [candesartan] | do not significantly alter | trend toward increasing; also recorded: do not significantly alter | – | – | –
